Data on 10 molecules can be found in patent US10144732B2 (BIOGEN MA INC., priority 2014, dated 2018).

As usually defined, the IC50 is the midpoint of a concentration-inhibition curve.

Several values for one entry are separate records, joined by “and”; a condition that tells them apart may be missing. Identical values can stand only once.

In this assay the target is T1, Human ATX protein (Homo sapiens, UniProt Q13822).
T1 construct: made in house
As to the kind of experiment: ATX biochemical assay (FRET, FS-3 substrate). To be noted: FRET assay, FS-3 2 μM, ATX 1.0 μg/mL, 30 minutes preincubation, 2 hours reaction at room temperature; read-out: IC50. Put shortly: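 In-house human ATX (1.0 μg/mL final) was preincubated with compound for 30 min at room temperature in Tris buffer pH 7.4 with 1 mg/mL fatty acid free-BSA. FS-3 substrate (2 μM final) was then hydrolysed for 2 hours at room temperature, protected from light, and read as fluorescence at ex 485/em 538 nm.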
In the case of `COC(=O)[C@H]1CC[C@@H](N(C)C(=O)N2CCc3c(C(F)(F)F)nn(Cc4ccc(Cl)cc4F)c3C2)CC1` [Example 3-3, cis-Methyl 4-(1-(4-chloro-2-fluorobenzyl)-N-methyl-3-(trifluoromethyl)-4,5,6,7-tetrahydro-1H-pyrazolo[3,4-c]pyridine-6-carboxamido)cyclohexanecarboxylate], the IC50 is > 500 nM and ≤ 10000 nM. In the case of `COC(=O)[C@H]1CC[C@H](N(C)C(=O)N2CCc3c(C(F)(F)F)nn(Cc4ccc(Cl)cc4F)c3C2)CC1` [Example 3-4, trans-Methyl 4-(1-(4-chloro-2-fluorobenzyl)-N-methyl-3-(trifluoromethyl)-4,5,6,7-tetrahydro-1H-pyrazolo[3,4-c]pyridine-6-carboxamido)cyclohexanecarboxylate] it was 100 to 250 nM. On to `CCOC(=O)C1CCC(OC(=O)N2CCc3c(C(F)(F)F)nn(Cc4ccc(Cl)cc4F)c3C2)CC1` (stereo not shown) [Example 4-1, 4-(Ethoxycarbonyl)cyclohexyl1-(4-chloro-2-fluorobenzyl)-3-(trifluoromethyl)-4,5-dihydro-1H-pyrazolo[3,4-c]pyridine-6(7H)-carboxylate], for which the half-maximal inhibitory concentration (IC50) is no more than 100 nM. As for `O=C(C[C@H]1CC[C@H](C(=O)O)CC1)N1CCc2c(C(F)(F)F)nn(Cc3ccc(Cl)cc3F)c2C1` [Example 5-1, trans-4-(2-(1-(4-Chloro-2-fluorobenzyl)-3-(trifluoromethyl)-4,5-dihydro-1H-pyrazolo[3,4-c]pyridin-6(7H)-yl)-2-oxoethyl)cyclohexanecarboxylic acid], the concentration for half-maximal inhibition (IC50) is no more than 100 nM. On to `O=C(C[C@H]1CC[C@@H](C(=O)O)CC1)N1CCc2c(C(F)(F)F)nn(Cc3ccc(Cl)cc3F)c2C1` [Example 5-2, cis-4-(2-(1-(4-Chloro-2-fluorobenzyl)-3-(trifluoromethyl)-4,5-dihydro-1H-pyrazolo[3,4-c]pyridin-6(7H)-yl)-2-oxoethyl)cyclohexanecarboxylic acid], for which the IC50 is no more than 100 nM. Turning to `O=C(C[C@H]1CC[C@H](C(=O)O)CC1)N1CCc2c(C(F)(F)F)nn(Cc3cc(F)cc(Cl)c3)c2C1` [Example 5-3, trans-4-(2-(1-(3-chloro-5-fluorobenzyl)-3-(trifluoromethyl)-4,5-dihydro-1H-pyrazolo[3,4-c]pyridin-6(7H)-yl)-2-oxoethyl)cyclohexanecarboxylic acid], the IC50 was no more than 100 nM.

On to `O=C(C[C@H]1CC[C@@H](C(=O)O)CC1)N1CCc2c(C(F)(F)F)nn(Cc3cc(F)cc(Cl)c3)c2C1` [Example 5-4, cis-4-(2-(1-(3-chloro-5-fluorobenzyl)-3-(trifluoromethyl)-4,5-dihydro-1H-pyrazolo[3,4-c]pyridin-6(7H)-yl)-2-oxoethyl)cyclohexanecarboxylic acid], for which the IC50 is no more than 100 nM.

On to `O=C(O)c1ccc(CC(=O)N2CCc3c(C(F)(F)F)nn(Cc4ccc(Cl)cc4F)c3C2)cc1` [Example 5-5, 4-(2-(1-(4-Chloro-2-fluorobenzyl)-3-(trifluoromethyl)-4,5-dihydro-1H-pyrazolo[3,4-c]pyridin-6(7H)-yl)-2-oxoethyl)benzoic acid], for which the IC50 was no more than 100 nM.

Turning to `O=C(N[C@H]1CC[C@@H](C(=O)O)CC1)N1CCc2c(C(F)(F)F)nn(Cc3ccc(Cl)cc3F)c2C1` [Example 5-6, cis-4-(1-(4-chloro-2-fluorobenzyl)-3-(trifluoromethyl)-4,5,6,7-tetrahydro-1H-pyrazolo[3,4-c]pyridine-6-carboxamido)cyclohexanecarboxylic acid], the IC50 is no more than 100 nM. In the case of `O=C(N[C@H]1CC[C@H](C(=O)O)CC1)N1CCc2c(C(F)(F)F)nn(Cc3ccc(Cl)cc3F)c2C1` [Example 5-7, trans-4-(1-(4-Chloro-2-fluorobenzyl)-3-(trifluoromethyl)-4,5,6,7-tetrahydro-1H-pyrazolo[3,4-c]pyridine-6-carboxamido)cyclohexanecarboxylic acid] it was no more than 100 nM.
